# Results from US6380198B1 (Laboratoire Medidom S.A., priority 1997, dated 2002).
# Values joined by “and” are separate entries in the source; they are usually repeats but may differ in a detail not shown here. Equal entries are not always repeated. Where two headings read alike, the source gives them in different places.
# Columns and labels:
# [1] = system: intraocular pressure; assay: Intraocular pressure in New Zealand albino rabbits after instillation of a σ ligand; format: in vivo, rabbit (New Zealand albino); conditions: 1% preparation, 50 μl in right conjunctival fornix; 60 minutes after instillation; p<0.01
# Procedure: A 1% preparation of NANM was administered (50 μl) in the conjunctival fornix of the right eye of male albino rabbits of the New Zealand strain, after measuring the (baseline) intraocular pressure.
# [2] = target: T1, σ-1 receptors (Oryctolagus cuniculus, UniProt G1SD54); assay: [3H](+)-pentazocine receptor binding and competitive binding on irido-ciliary body membranes; set-up: species or system rabbit (New Zealand albino)
# T1 construct: cell membranes obtained from the irido-ciliary body complex; from tissue; host or cells: rabbit irido-ciliary body, P2 membrane fraction
# T1 sequence (G1SD54 1-223): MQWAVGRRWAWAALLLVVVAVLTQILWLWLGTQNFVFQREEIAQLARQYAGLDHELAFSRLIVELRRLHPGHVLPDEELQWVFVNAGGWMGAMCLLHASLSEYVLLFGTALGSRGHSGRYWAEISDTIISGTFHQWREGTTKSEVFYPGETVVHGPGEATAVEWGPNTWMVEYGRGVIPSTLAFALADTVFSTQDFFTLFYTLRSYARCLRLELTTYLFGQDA
# Source text: In order to identify the presence of a receptor sites in the eye the technique of “receptor binding” has been exploited. The latter has been carried out on cell membranes obtained from the irido-ciliary body complex. The irido-ciliary body complex had been explanted, after sacrifice, from male albino rabbits of the New Zealand strain. The tissue was homogenised in buffer and a fraction rich in cell membrane proteins was isolated, obtained by centrifugation. […] Aliquots of the said fraction of the homogenate containing 300 μg of total proteins were incubated with scalar amounts of [^3H](+)-pentazocine (which is used, for experimental purposes only, as a a ligand). The reaction was carried out at 37° C. for 150 minutes and then, after filtering, the radioactivity left on the filters was measured by liquid scintillation.
# [3] = system: intraocular pressure; conditions: general statement on the literature; cited from earlier work
# [4] = system: intraocular pressure of rabbits showing normal baseline intraocular pressure; assay: Intraocular pressure in rabbits with normal intraocular pressure after topical instillation; format: in vivo, rabbit (Vienna Blue, pigmented)
# [5] = system: cornea (corneal thickness)
# [6] = system: intraocular pressure; conditions: cited from earlier work
# [7] = system: intraocular pressure of rabbits with ocular hypertension; assay: Intraocular pressure in rabbits with ocular hypertension induced by α-chymotrypsin; format: in vivo, rabbit (Vienna Blue, pigmented)
# [8] = 50 μl eye-drops, 0.050% flunarizine, equimolar comparators, 0.5% timolol
structure (smiles),measurement,setting,value
"C=CCN1CC[C@@]2(C)c3cc(O)ccc3C[C@@H]1[C@@H]2C [NANM, (+)-N-allil-nor-meth-azocine]",Intraocular pressure versus vehicle,[1],significantly reduced
same,Classes of σ receptor sites bound (Hill coefficient analysis),[2]; competitive binding,interacts with one only class
same,Displacement of [3H](+)-pentazocine in competitive binding,"[2]; constant amount of radioligand, scalar amounts of competitor",shift the radioactive ligands from the receptor sites
COc1ccc(CCN(C)CCCC(C#N)(c2ccc(OC)c(OC)c2)C(C)C)cc1OC (centres unmarked) [verapamil],Intraocular pressure after administration to man,[3],reduction of the intraocular pressure
same,"Effect on intraocular pressure in rabbits with normal pressure, in words",[4]; [8],"neither the verapamil formulation nor the diltiazem formulation, both using the same vehicle as MEG 01, did produce any intraocular pressure decrease"
same,"Intraocular pressure (mmHg) at the time (min): 30, average ± S.D.","[4]; Table 1, average ± S.D. of 4 rabbits, 30 min after instillation, 50 μl eye-drops: 0.050% flunarizine, 0.056% verapamil, 0.051% diltiazem, 0.043% nifedipine",15 ± 1.3 mmHg
same,"Intraocular pressure (mmHg) at the time (min): 60, average ± S.D.","[4]; Table 1, average ± S.D. of 4 rabbits, 60 min after instillation, 50 μl eye-drops: 0.050% flunarizine, 0.056% verapamil, 0.051% diltiazem, 0.043% nifedipine",14.7 ± 0.5 mmHg
same,"Intraocular pressure (mmHg) at the time (min): 90, average ± S.D.","[4]; Table 1, average ± S.D. of 4 rabbits, 90 min after instillation, 50 μl eye-drops: 0.050% flunarizine, 0.056% verapamil, 0.051% diltiazem, 0.043% nifedipine",14 ± 1.0 mmHg
same,"Intraocular pressure (mmHg) at the time (min): 120, average ± S.D.","[4]; Table 1, average ± S.D. of 4 rabbits, 120 min after instillation, 50 μl eye-drops: 0.050% flunarizine, 0.056% verapamil, 0.051% diltiazem, 0.043% nifedipine",15.7 ± 0.5 mmHg
same,"Intraocular pressure (mmHg) at the time (min): 180, average ± S.D.","[4]; Table 1, average ± S.D. of 4 rabbits, 180 min after instillation, 50 μl eye-drops: 0.050% flunarizine, 0.056% verapamil, 0.051% diltiazem, 0.043% nifedipine",16.2 ± 0.5 mmHg
same,"Intraocular pressure (mmHg) at the time (min): 240, average ± S.D.","[4]; Table 1, average ± S.D. of 4 rabbits, 240 min after instillation, 50 μl eye-drops: 0.050% flunarizine, 0.056% verapamil, 0.051% diltiazem, 0.043% nifedipine",16.5 ± 1.0 mmHg
same,"Intraocular pressure (mmHg) at the time (min): 0, average ± S.D.","[4]; Table 1, average ± S.D. of 4 rabbits, time 0 = 15 min before instillation (baseline), 50 μl eye-drops: 0.050% flunarizine, 0.056% verapamil, 0.051% diltiazem, 0.043% nifedipine",16 ± 0.8 mmHg
same,Intraocular pressure (mmHg) at the time (min): 30,"[4]; Table 1, individual rabbit, right eye, 30 min after instillation, 50 μl eye-drops: 0.050% flunarizine, 0.056% verapamil, 0.051% diltiazem, 0.043% nifedipine",16 mmHg and 14 mmHg and 17 mmHg and 15 mmHg
same,Intraocular pressure (mmHg) at the time (min): 60,"[4]; Table 1, individual rabbit, right eye, 60 min after instillation, 50 μl eye-drops: 0.050% flunarizine, 0.056% verapamil, 0.051% diltiazem, 0.043% nifedipine",15 mmHg (3×) and 14 mmHg
same,Intraocular pressure (mmHg) at the time (min): 90,"[4]; Table 1, individual rabbit, right eye, 90 min after instillation, 50 μl eye-drops: 0.050% flunarizine, 0.056% verapamil, 0.051% diltiazem, 0.043% nifedipine",15 mmHg (3×) and 13 mmHg
same,Intraocular pressure (mmHg) at the time (min): 120,"[4]; Table 1, individual rabbit, right eye, 120 min after instillation, 50 μl eye-drops: 0.050% flunarizine, 0.056% verapamil, 0.051% diltiazem, 0.043% nifedipine",16 mmHg (3×) and 13 mmHg
same,Intraocular pressure (mmHg) at the time (min): 180,"[4]; Table 1, individual rabbit, right eye, 180 min after instillation, 50 μl eye-drops: 0.050% flunarizine, 0.056% verapamil, 0.051% diltiazem, 0.043% nifedipine",16 mmHg (3×) and 17 mmHg
same,Intraocular pressure (mmHg) at the time (min): 240,"[4]; Table 1, individual rabbit, right eye, 240 min after instillation, 50 μl eye-drops: 0.050% flunarizine, 0.056% verapamil, 0.051% diltiazem, 0.043% nifedipine",17 mmHg (3×) and 15 mmHg
same,Intraocular pressure (mmHg) at the time (min): 0,"[4]; Table 1, individual rabbit, right eye, time 0 = 15 min before instillation (baseline), 50 μl eye-drops: 0.050% flunarizine, 0.056% verapamil, 0.051% diltiazem, 0.043% nifedipine",17 mmHg and 15 mmHg and 16 mmHg (2×)
same,Corneal thickness (mm): 1 hour,"[5]; individual rabbit, treated right eye (RE), 1 hour after single 50 μl instillation, 0.050% flunarizine, 0.056% verapamil, 0.051% diltiazem, 0.043% nifedipine",0.376 mm and 0.398 mm and 0.387 mm and 0.401 mm
same,Corneal thickness (mm): 2 hours,"[5]; individual rabbit, treated right eye (RE), 2 hours after single 50 μl instillation, 0.050% flunarizine, 0.056% verapamil, 0.051% diltiazem, 0.043% nifedipine",0.385 mm and 0.406 mm and 0.400 mm and 0.494 mm
same,Corneal thickness (mm): 3 hours,"[5]; individual rabbit, treated right eye (RE), 3 hours after single 50 μl instillation, 0.050% flunarizine, 0.056% verapamil, 0.051% diltiazem, 0.043% nifedipine",0.383 mm and 0.402 mm (2×) and 0.410 mm
same,Corneal thickness (mm): Baseline,"[5]; individual rabbit, treated right eye (RE), before single 50 μl instillation, 0.050% flunarizine, 0.056% verapamil, 0.051% diltiazem, 0.043% nifedipine",0.356 mm and 0.384 mm and 0.372 mm and 0.392 mm
same,Increase in corneal thickness,[5]; ophthalmic solution containing 0.056% verapamil,15-20 μm/hour
same,"Corneal swelling / alteration of corneal thickness, in words","[5]; single 50 μl instillation, observed up to 3 hours",caused comeal swelling
same,Intraocular pressure after oral administration to rabbits,[6]; Beatty et al. 1984,did not evidence any effect
same,Intraocular pressure after topical administration to rabbits,[6]; Beatty et al. 1984,increase in the intraocular pressure
same,Intraocular pressure after systemic administration to rabbits,[6]; Payene et al. 1990,reduction in the intraocular pressure
same,Intraocular pressure after topical administration to rabbits,[6]; Payene et al. 1990,did not detect any significant effect
same,"Effect on intraocular pressure in rabbits with ocular hypertension, in words",[7]; [8],do not show any significant reduction
same,"Intraocular pressure (mmHg) at the time (min): 30, average ± S.D.","[7]; Table 3, hypertensive rabbits, average ± S.D. of 4 rabbits, 30 min after instillation, 50 μl eye-drops: 0.050% flunarizine, 0.056% verapamil, 0.051% diltiazem, 0.043% nifedipine",48.7 ± 6.5 mmHg
same,"Intraocular pressure (mmHg) at the time (min): 60, average ± S.D.","[7]; Table 3, hypertensive rabbits, average ± S.D. of 4 rabbits, 60 min after instillation, 50 μl eye-drops: 0.050% flunarizine, 0.056% verapamil, 0.051% diltiazem, 0.043% nifedipine",50.0 ± 5.47 mmHg
same,"Intraocular pressure (mmHg) at the time (min): 90, average ± S.D.","[7]; Table 3, hypertensive rabbits, average ± S.D. of 4 rabbits, 90 min after instillation, 50 μl eye-drops: 0.050% flunarizine, 0.056% verapamil, 0.051% diltiazem, 0.043% nifedipine",48.0 ± 5.94 mmHg
same,"Intraocular pressure (mmHg) at the time (min): 120, average ± S.D.","[7]; Table 3, hypertensive rabbits, average ± S.D. of 4 rabbits, 120 min after instillation, 50 μl eye-drops: 0.050% flunarizine, 0.056% verapamil, 0.051% diltiazem, 0.043% nifedipine",48.5 ± 5.97 mmHg
same,"Intraocular pressure (mmHg) at the time (min): 180, average ± S.D.","[7]; Table 3, hypertensive rabbits, average ± S.D. of 4 rabbits, 180 min after instillation, 50 μl eye-drops: 0.050% flunarizine, 0.056% verapamil, 0.051% diltiazem, 0.043% nifedipine",48.75 ± 6.39 mmHg
same,"Intraocular pressure (mmHg) at the time (min): 240, average ± S.D.","[7]; Table 3, hypertensive rabbits, average ± S.D. of 4 rabbits, 240 min after instillation, 50 μl eye-drops: 0.050% flunarizine, 0.056% verapamil, 0.051% diltiazem, 0.043% nifedipine",49.5 ± 5.44 mmHg
same,"Intraocular pressure (mmHg) at the time (min): 0, average ± S.D.","[7]; Table 3, hypertensive rabbits, average ± S.D. of 4 rabbits, time 0 = 15 min before instillation (baseline), 50 μl eye-drops: 0.050% flunarizine, 0.056% verapamil, 0.051% diltiazem, 0.043% nifedipine",49.0 ± 5.94 mmHg
same,Intraocular pressure (mmHg) at the time (min): 30,"[7]; Table 3, hypertensive rabbits, individual rabbit, right eye, 30 min after instillation, 50 μl eye-drops: 0.050% flunarizine, 0.056% verapamil, 0.051% diltiazem, 0.043% nifedipine",55 mmHg and 48 mmHg and 40 mmHg and 52 mmHg
same,Intraocular pressure (mmHg) at the time (min): 60,"[7]; Table 3, hypertensive rabbits, individual rabbit, right eye, 60 min after instillation, 50 μl eye-drops: 0.050% flunarizine, 0.056% verapamil, 0.051% diltiazem, 0.043% nifedipine",56 mmHg and 49 mmHg and 43 mmHg and 52 mmHg
same,Intraocular pressure (mmHg) at the time (min): 90,"[7]; Table 3, hypertensive rabbits, individual rabbit, right eye, 90 min after instillation, 50 μl eye-drops: 0.050% flunarizine, 0.056% verapamil, 0.051% diltiazem, 0.043% nifedipine",55 mmHg and 46 mmHg and 41 mmHg and 50 mmHg
same,Intraocular pressure (mmHg) at the time (min): 120,"[7]; Table 3, hypertensive rabbits, individual rabbit, right eye, 120 min after instillation, 50 μl eye-drops: 0.050% flunarizine, 0.056% verapamil, 0.051% diltiazem, 0.043% nifedipine",55 mmHg and 47 mmHg and 41 mmHg and 51 mmHg
same,Intraocular pressure (mmHg) at the time (min): 180,"[7]; Table 3, hypertensive rabbits, individual rabbit, right eye, 180 min after instillation, 50 μl eye-drops: 0.050% flunarizine, 0.056% verapamil, 0.051% diltiazem, 0.043% nifedipine",57 mmHg and 46 mmHg and 42 mmHg and 50 mmHg
same,Intraocular pressure (mmHg) at the time (min): 240,"[7]; Table 3, hypertensive rabbits, individual rabbit, right eye, 240 min after instillation, 50 μl eye-drops: 0.050% flunarizine, 0.056% verapamil, 0.051% diltiazem, 0.043% nifedipine",56 mmHg and 48 mmHg and 43 mmHg and 51 mmHg
same,Intraocular pressure (mmHg) at the time (min): 0,"[7]; Table 3, hypertensive rabbits, individual rabbit, right eye, time 0 = 15 min before instillation (baseline), 50 μl eye-drops: 0.050% flunarizine, 0.056% verapamil, 0.051% diltiazem, 0.043% nifedipine",56 mmHg and 47 mmHg and 42 mmHg and 51 mmHg
